Experimental data published in patent US9271971B2, “Pyrido[3,4-B]indoles and methods of use” (Medivation Technologies, Inc., priority 2009, dated 2016).

Experiments:
[1] = biological target: T1, rat adrenergic α1B receptor (Rattus norvegicus, UniProt P15823); experiment: Adrenergic α1B radioligand binding assay; details: [3H]Prozosin specific binding, read-out: Percent Inhibition of ligand binding, Adrenergic (0.1 μM ligand conc.) α1B
T1 construct: rat adrenergic α1B receptor obtained from Wistar Rat liver; from tissue; host or cells: Wistar Rat liver
T1 sequence (P15823 1-515): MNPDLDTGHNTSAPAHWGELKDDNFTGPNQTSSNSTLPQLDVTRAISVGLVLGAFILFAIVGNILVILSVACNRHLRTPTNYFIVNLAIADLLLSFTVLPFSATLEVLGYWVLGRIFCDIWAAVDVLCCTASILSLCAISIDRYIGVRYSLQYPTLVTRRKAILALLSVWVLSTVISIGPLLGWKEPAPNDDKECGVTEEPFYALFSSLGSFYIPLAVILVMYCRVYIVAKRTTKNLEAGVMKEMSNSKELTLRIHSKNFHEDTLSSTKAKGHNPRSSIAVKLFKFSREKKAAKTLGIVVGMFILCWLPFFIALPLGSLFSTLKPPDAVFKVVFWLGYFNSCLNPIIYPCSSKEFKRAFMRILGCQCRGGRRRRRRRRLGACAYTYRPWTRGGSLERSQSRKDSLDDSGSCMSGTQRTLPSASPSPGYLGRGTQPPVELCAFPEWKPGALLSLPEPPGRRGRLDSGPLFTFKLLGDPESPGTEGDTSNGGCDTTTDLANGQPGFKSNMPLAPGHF
Description: To evaluate in radioligand binding assays the activity of compounds of the invention, rat adrenergic α1B receptor obtained from Wistar Rat liver [Garcia-S′ainz, J. A. et al., Biochem. Biophys. Res. Commun. (1992), 186:760; Michel, A. D. et al., Br. J. Pharmacol. (1989), 98:883] in a modified Tris-HCl buffer (50 mM Tris-HCl buffer, pH 7.4, 0.5 mM EDTA) was used. Compounds of the invention were incubated with 0.25 nM [^3H]Prozosin for 60 min. at 25° C. Non-specific binding was estimated in the presence of 10 μM phentolamine. Receptor proteins were filtered and washed, the filters were then counted to determine [^3H]Prozosin specifically bound. Compounds were screened at 1 μM or lower, using 1% DMSO as vehicle. Compounds of the invention were tested in this biochemical assay. Biochemical assay results for representative compounds were presented as the percent inhibition of specific binding in Table 3.

[2] = biological target: human recombinant histamine H1 receptor (Homo sapiens, UniProt P35367); experiment: Histamine H1 radioligand binding assay; details: [3H]Pyrilamine specific binding, read-out: Percentage Inhibition, Histamine Binding (1 μM) H1
Description: To evaluate in radioligand binding assays the activity of compounds of the invention, human recombinant histamine H1 receptor expressed in Chinese hamster ovary (CHO) cells [De Backer, M. D. et al., Biochem. Biophys. Res. Comm. (1993), 197(3):1601] in a modified Tris-HCl buffer (50 mM Tris-HCl, pH 7.4, 2 mM MgCl2, 100 mM NaCl, 250 mM Sucrose) was used. Compounds of the invention were incubated with 1.2 nM [^3H]Pyrilamine for 180 min. at 25° C. Non-specific binding was estimated in the presence of 1 μM pyrilamine. Receptor proteins were filtered and washed, the filters were then counted to determine [^3H]Pyrilamine specifically bound. Compounds were screened at 1 μM or lower, using 1% DMSO as vehicle. Biochemical assay results are presented as the percent inhibition of specific binding in Table 2.

[3] = biological target: T2, human recombinant adrenergic α2C receptor (Homo sapiens, UniProt P18825); experiment: Adrenergic α2C radioligand binding assay; details: [3H]MK-912 specific binding, read-out: Percent Inhibition of ligand binding, Adrenergic (0.1 μM ligand conc.) α2C
T2 construct: expressed in transfected cells; host or cells: insect Sf9 cells
T2 sequence (P18825 1-462): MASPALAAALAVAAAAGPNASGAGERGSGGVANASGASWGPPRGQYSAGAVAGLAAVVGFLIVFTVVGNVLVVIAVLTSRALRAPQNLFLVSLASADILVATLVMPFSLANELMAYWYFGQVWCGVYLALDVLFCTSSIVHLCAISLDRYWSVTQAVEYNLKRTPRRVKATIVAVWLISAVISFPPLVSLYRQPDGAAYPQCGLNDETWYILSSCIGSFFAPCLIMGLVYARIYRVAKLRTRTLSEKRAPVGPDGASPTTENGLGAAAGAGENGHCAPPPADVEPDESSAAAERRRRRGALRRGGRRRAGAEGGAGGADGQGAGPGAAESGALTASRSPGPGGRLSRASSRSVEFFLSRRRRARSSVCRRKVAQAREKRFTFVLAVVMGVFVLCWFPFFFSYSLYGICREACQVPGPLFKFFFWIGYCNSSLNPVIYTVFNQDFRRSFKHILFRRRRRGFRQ
Description: To evaluate in radioligand binding assays the activity of compounds of the invention, human recombinant adrenergic α2C receptor expressed in insect Sf9 cells [Uhlen, S et al., J. Pharmacol. Exp. Ther. (1994), 271:1558] in a modified Tris-HCl buffer (50 mM Tris-HCl, pH 7.4, 12.5 mM MgCl2, 2 mM EDTA) was used. Compounds of the invention were incubated with 1 nM [^3H]MK-912 for 60 min. at 25° C. Non-specific binding was estimated in the presence of 10 μM WB-4101. Receptor proteins were filtered and washed, the filters were then counted to determine [^3H]MK-912 specifically bound. Compounds were screened at 1 μM or lower, using 1% DMSO as vehicle. Compounds of the invention were tested in this biochemical assay. Biochemical assay results for representative compounds were presented as the percent inhibition of specific binding in Table 3.

[4] = biological target: human recombinant serotonin (5-Hydroxytryptamine) 5-HT7 receptor (Homo sapiens, UniProt P34969); experiment: Serotonin 5-HT7 radioligand binding assay; details: [3H]LSD specific binding, read-out: Percent Inhibition of ligand binding, Serotonin (1 μM ligand concentration) 5-HT7
Description: To evaluate in radioligand binding assays the activity of compounds of the invention, human recombinant serotonin (5-Hydroxytryptamine) 5-HT7 receptor expressed in Chinese hamster ovary (CHO) cells [Roth, B. L. et al., J. Pharmacol. Exp. Ther. (1994), 268:1403; Shen, Y. et al., J. Biol. Chem. (1993), 268:18200] in a modified Tris-HCl buffer (50 mM Tris-HCl, pH 7.4, 10 mM MgCl2, 0.5 mM EDTA) was used. Compounds of invention were incubated with 5.5 nM [^3H] Lysergic acid diethylamide (LSD) for 2 h at 25° C. Non-specific binding was estimated in the presence of 10 μM Serotonin (5-HT). Receptor proteins were filtered and washed, the filters were then counted to determine [^3H]LSD specifically bound. Compounds were screened at 1 μM or lower, using 1% DMSO as vehicle. Biochemical assay results are presented as the percent inhibition of specific binding in Table 4.

Chain of human recombinant histamine H1 receptor (P35367 whole entry): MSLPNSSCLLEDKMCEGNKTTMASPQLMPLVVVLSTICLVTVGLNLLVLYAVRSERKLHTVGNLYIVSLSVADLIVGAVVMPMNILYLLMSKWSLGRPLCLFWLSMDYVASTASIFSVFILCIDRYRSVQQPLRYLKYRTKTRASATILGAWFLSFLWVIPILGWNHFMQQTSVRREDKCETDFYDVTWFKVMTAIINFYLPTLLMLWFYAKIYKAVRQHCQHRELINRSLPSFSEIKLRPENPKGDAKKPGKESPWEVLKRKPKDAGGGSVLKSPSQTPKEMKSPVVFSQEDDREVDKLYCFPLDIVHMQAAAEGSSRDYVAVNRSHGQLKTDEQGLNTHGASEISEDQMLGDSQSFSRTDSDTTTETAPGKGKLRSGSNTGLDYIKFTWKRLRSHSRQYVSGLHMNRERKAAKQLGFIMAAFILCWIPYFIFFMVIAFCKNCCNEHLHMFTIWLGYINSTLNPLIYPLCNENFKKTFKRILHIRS
Chain of human recombinant serotonin (5-Hydroxytryptamine) 5-HT7 receptor (P34969 whole entry): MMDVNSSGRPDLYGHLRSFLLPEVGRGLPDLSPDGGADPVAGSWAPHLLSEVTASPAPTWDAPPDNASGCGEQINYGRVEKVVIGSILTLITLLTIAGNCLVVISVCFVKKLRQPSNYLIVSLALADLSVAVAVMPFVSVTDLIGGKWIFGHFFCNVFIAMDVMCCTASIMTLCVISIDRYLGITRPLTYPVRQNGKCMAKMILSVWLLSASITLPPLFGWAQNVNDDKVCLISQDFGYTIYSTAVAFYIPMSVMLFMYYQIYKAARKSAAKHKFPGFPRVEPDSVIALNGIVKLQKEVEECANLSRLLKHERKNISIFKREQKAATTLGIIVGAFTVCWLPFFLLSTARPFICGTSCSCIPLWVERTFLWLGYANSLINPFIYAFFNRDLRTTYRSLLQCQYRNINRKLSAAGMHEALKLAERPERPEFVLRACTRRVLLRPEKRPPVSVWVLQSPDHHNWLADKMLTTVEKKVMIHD

Structure (SMILES) | inhibition at 0.1 µM [1] | inhibition at 1 µM [2] | inhibition at 0.1 µM [3] | inhibition at 1 µM [4]
COc1ccc(/C(C)=C/n2c3c(c4cc(C)ccc42)C2CCN(C3)C2)cc1 (centres unmarked) [Compound 45] | 20% | 26% | 3% | 93%
C/C(=C\n1c2c(c3cc(C)ccc31)C1CCN(C2)C1)c1ccncc1 (centres unmarked) [Compound 44] | 4% | 23% | 7% | 80%
Cc1ccc2c(c1)c1c(n2C(=O)Cc2ccc(Cl)cc2)CN2CCC1C2 (centres unmarked) [Compound 36] | 4% | 45% | 24% | 75%
C/C(=C\n1c2c(c3cc(C)ccc31)C1CCN(C2)C1)c1ccccc1F (centres unmarked) [Compound 38] | 29% | 38% | 13% | 95%
C/C(=C\n1c2c(c3cc(C)ccc31)C1CCN(C2)C1)c1ccc(Cl)cc1 (centres unmarked) [Compound 32] | 67% | 85% | 39% | 96%
